From BigSolDB 2.1

CC1=CC(=O)c2ccccc2C1=O
solubility (mole fraction) (in 1,2-dichloroethane, 278.15 K): 0.0879
solubility (mole fraction) (in 1,2-dichloroethane, 283.15 K): 0.108
solubility (mole fraction) (in 1,2-dichloroethane, 288.15 K): 0.12
solubility (mole fraction) (in 1,2-dichloroethane, 293.15 K): 0.142
solubility (mole fraction) (in 1,2-dichloroethane, 298.15 K): 0.159
solubility (mole fraction) (in 1,2-dichloroethane, 303.15 K): 0.187
solubility (mole fraction) (in 1,2-dichloroethane, 308.15 K): 0.21
solubility (mole fraction) (in 1,2-dichloroethane, 313.15 K): 0.243
solubility (mole fraction) (in acetone, 278.15 K): 0.0305
solubility (mole fraction) (in acetone, 283.15 K): 0.0381
solubility (mole fraction) (in acetone, 288.15 K): 0.0439
solubility (mole fraction) (in acetone, 293.15 K): 0.0534
solubility (mole fraction) (in acetone, 298.15 K): 0.0669
solubility (mole fraction) (in acetone, 303.15 K): 0.0809
solubility (mole fraction) (in acetone, 308.15 K): 0.0983
solubility (mole fraction) (in acetone, 313.15 K): 0.118
solubility (mole fraction) (in acetonitrile, 278.15 K): 0.016
solubility (mole fraction) (in acetonitrile, 283.15 K): 0.0197
solubility (mole fraction) (in acetonitrile, 288.15 K): 0.027
solubility (mole fraction) (in acetonitrile, 293.15 K): 0.0326
solubility (mole fraction) (in acetonitrile, 298.15 K): 0.0403
solubility (mole fraction) (in acetonitrile, 303.15 K): 0.0491
solubility (mole fraction) (in acetonitrile, 308.15 K): 0.0609
solubility (mole fraction) (in acetonitrile, 313.15 K): 0.0737
solubility (mole fraction) (in cyclohexane, 283.15 K): 0.00329
solubility (mole fraction) (in cyclohexane, 288.15 K): 0.00417
solubility (mole fraction) (in cyclohexane, 293.15 K): 0.00514
solubility (mole fraction) (in cyclohexane, 298.15 K): 0.00673
solubility (mole fraction) (in cyclohexane, 303.15 K): 0.00848
solubility (mole fraction) (in cyclohexane, 308.15 K): 0.0103
solubility (mole fraction) (in cyclohexane, 313.15 K): 0.0131
solubility (mole fraction) (in dichloromethane, 278.15 K): 0.111
solubility (mole fraction) (in dichloromethane, 283.15 K): 0.128
solubility (mole fraction) (in dichloromethane, 288.15 K): 0.148
solubility (mole fraction) (in dichloromethane, 293.15 K): 0.169
solubility (mole fraction) (in dichloromethane, 298.15 K): 0.193
solubility (mole fraction) (in dichloromethane, 303.15 K): 0.219
solubility (mole fraction) (in dichloromethane, 308.15 K): 0.247
solubility (mole fraction) (in dichloromethane, 313.15 K): 0.277
solubility (mole fraction) (in isopropanol, 278.15 K): 0.00291
solubility (mole fraction) (in isopropanol, 283.15 K): 0.00373
solubility (mole fraction) (in isopropanol, 288.15 K): 0.0048
solubility (mole fraction) (in isopropanol, 293.15 K): 0.00588
solubility (mole fraction) (in isopropanol, 298.15 K): 0.00764
solubility (mole fraction) (in isopropanol, 303.15 K): 0.0096
solubility (mole fraction) (in isopropanol, 308.15 K): 0.0122
solubility (mole fraction) (in isopropanol, 313.15 K): 0.0153
solubility (mole fraction) (in methanol, 278.15 K): 0.00285
solubility (mole fraction) (in methanol, 283.15 K): 0.00335
solubility (mole fraction) (in methanol, 288.15 K): 0.00396
solubility (mole fraction) (in methanol, 293.15 K): 0.00484
solubility (mole fraction) (in methanol, 298.15 K): 0.00606
solubility (mole fraction) (in methanol, 303.15 K): 0.00709
solubility (mole fraction) (in methanol, 308.15 K): 0.00827
solubility (mole fraction) (in methanol, 313.15 K): 0.00975
solubility (mole fraction) (in methyl acetate, 278.15 K): 0.0427
solubility (mole fraction) (in methyl acetate, 283.15 K): 0.0481
solubility (mole fraction) (in methyl acetate, 288.15 K): 0.0595
solubility (mole fraction) (in methyl acetate, 293.15 K): 0.0718
solubility (mole fraction) (in methyl acetate, 298.15 K): 0.0854
solubility (mole fraction) (in methyl acetate, 303.15 K): 0.105
solubility (mole fraction) (in methyl acetate, 308.15 K): 0.12
solubility (mole fraction) (in methyl acetate, 313.15 K): 0.148
solubility (mole fraction) (in n-butanol, 278.15 K): 0.00314
solubility (mole fraction) (in n-butanol, 283.15 K): 0.00417
solubility (mole fraction) (in n-butanol, 288.15 K): 0.0057
solubility (mole fraction) (in n-butanol, 293.15 K): 0.00742
solubility (mole fraction) (in n-butanol, 298.15 K): 0.00994
solubility (mole fraction) (in n-butanol, 303.15 K): 0.0127
solubility (mole fraction) (in n-butanol, 308.15 K): 0.0169
solubility (mole fraction) (in n-butanol, 313.15 K): 0.0223
solubility (mole fraction) (in n-propanol, 278.15 K): 0.00343
solubility (mole fraction) (in n-propanol, 283.15 K): 0.00426
solubility (mole fraction) (in n-propanol, 288.15 K): 0.00564
solubility (mole fraction) (in n-propanol, 293.15 K): 0.00685
solubility (mole fraction) (in n-propanol, 298.15 K): 0.00838
solubility (mole fraction) (in n-propanol, 303.15 K): 0.01
solubility (mole fraction) (in n-propanol, 308.15 K): 0.0122
solubility (mole fraction) (in n-propanol, 313.15 K): 0.0143
